Results: publication PMC9289672, “Optimization of Antibacterial Activity in Tibetan Swine α-Helix Peptide TP by Site-Directed Mutagenesis” (Frontiers in Microbiology, 2022)
Where no end group is shown, it is not given here.

Tests used:
Gram-negative bacteria = assay: Geometric mean of MIC and therapeutic index; type: cell-based; settings: MHC/GM; 128 μm used when 50% hemolysis not observed at 128 μm
Protocol: (§1) The bacteria were cultured overnight in the MHB medium and transferred to the new MHB the next day until the bacteria reached the exponential growth stage. The bacteria were diluted with MHB to 2 × 10^5 CFU/ml. About 50 μl of polypeptide and equal volume of bacterial suspension was added to a 96-well plate to give the final concentration of polypeptide between 1 and 128 μm. The last two columns are negative (MHB only) and positive (bacterial and MHB) controls and incubated at 37°C for 18–24 h. Optical density was measured at an absorbance wavelength of 492 nm using a microplate reader (Tecan GENios F129004, Tecan, Austria). At least three independent measurements were taken. Each trial was conducted two times in parallel. A total of three independent assays were carried out.
(§2) Trp is a hydrophobic amino acid with aromatic side chains. It is a special amino acid in peptide design. Previous studies have pointed out that introducing amino acids will also bring toxicity while improving activity. […] For further evaluating the cell selectivity of the peptides, we also calculated the SI which defined as the ratio of MHC to the geometric mean (GM) (Dufourc, [2008]).

Gram-positive bacteria = assay: Geometric mean of MIC and therapeutic index; type: cell-based; settings: MHC/GM; 128 μm used when 50% hemolysis not observed at 128 μm
Protocol: as §1, §2

[1] = test system: hRBCs (human red blood cells)
Protocol: The cytotoxicity of each peptide was assessed with IPEC-J12 and HEK 293T cells. […] Each trial was conducted two times in parallel. A total of three independent assays were carried out.

[2] = test system: Staphylococcus aureus ATCC 25923
Description: (§3) The bacteria strains Escherichia coli ATCC 25922, Escherichia coli UB1005, Salmonella typhimurium ATCC 14028, Salmonella typhimurium C7731, Pseudomonas aeruginosa ATCC 27853, Pseudomonas aeruginosa PAO1, Staphylococcus aureus ATCC 29213, Staphylococcus aureus ATCC 25923, Methicillin-resistant Staphylococcus aureus (MRSA) 43300, Enterococcus faecalis ATCC 29212, and Staphylococcus epidermidis ATCC 12228 were obtained from the College of Veterinary Medicine, Northeast Agricultural University (Harbin, China).
as §1

[3] = test system: Salmonella typhimurium C7731; settings: MHB, bacteria diluted to 2 × 10^5 CFU/ml, peptide 1-128 μm, 37°C 18-24 h, OD 492 nm; three independent assays, two in parallel
Description: as §3, §1

Escherichia coli UB1005 = settings: MHB, bacteria diluted to 2 × 10^5 CFU/ml, peptide 1-128 μm, 37°C 18-24 h, OD 492 nm; three independent assays, two in parallel
Description: as §3, §1

[4] = test system: Enterococcus faecalis ATCC 29212
Description: as §3, §1

[5] = test system: Pseudomonas aeruginosa ATCC 27853
Description: as §3, §1

[6] = test system: Staphylococcus aureus ATCC 29213
Description: as §3, §1

[7] = test system: Staphylococcus epidermidis ATCC 12228
Description: as §3, §1

[8] = test system: Escherichia coli ATCC 25922
Description: as §3, §1

[9] = test system: Methicillin-resistant Staphylococcus aureus (MRSA) 43300; settings: Methicillin-resistant 43300
Description: as §3, §1

[10] = test system: Salmonella typhimurium ATCC 14028
Description: as §3, §1

[11] = test system: Pseudomonas aeruginosa PAO1
Description: as §3, §1

all strains in Table 2 = assay: Geometric mean of MIC and therapeutic index; type: cell-based; settings: MHC/GM; 128 μm used when 50% hemolysis not observed at 128 μm
Protocol: as §1
Trp is a hydrophobic amino acid with aromatic side chains. It is a special amino acid in peptide design. Previous studies have pointed out that introducing amino acids will also bring toxicity while improving activity. Therefore, at the beginning of the design, we predicted that selecting Trp as hydrophobic amino acid to substitute H-H position would bring certain toxicity to the peptide. Thus, as expected, the introduction of Trp increases the activity and toxicity of these peptides. […] Meanwhile, the virulence of TP(i+4) 1&2&5&6 and TP(i+4) 1&2&6&7 was lower than that of TP(i+4) 1&2&5&7. We infer that the location of hydrophobic centers can effectively reduce peptide toxicity by Trp substitution. For further evaluating the cell selectivity of the peptides, we also calculated the SI which defined as the ratio of MHC to the geometric mean (GM) (Dufourc, [2008]).

Substance | Therapeutic index (TI), Gram-negative bacteria (Gram-negative bacteria) | Therapeutic index (TI), Gram-positive bacteria (Gram-positive bacteria) | MHC (concentration of peptide that causes hemolysis of 50% of human red blood cells) [1] [µM] | MIC, S. aureus 25923 [2] [µM] | MIC, S. typhimurium 7731 [3] [µM] | MIC, E. coli UB1005 (Escherichia coli UB1005) [µM] | MIC, E. faecalis 29212 [4] [µM] | MIC, P. aeruginosa 27853 [5] [µM] | MIC, S. aureus 29213 [6] [µM] | MIC, S. epidermidis 12228 [7] [µM] | MIC, E. coli 25922 [8] [µM] | MIC, S. aureus 43300 [9] [µM] | MIC, S. typhimurium 14028 [10] [µM] | MIC, P. aeruginosa PAO1 [11] [µM] | Therapeutic index (TI) / selectivity index (SI), All (all strains in Table 2)
ASVVKKLTKGVAGLLK-NH2 [TP(i+4) 1] | 2.83 | 1.00 | >128 | >128 | 64 | 16 | >128 | 64 | >128 | >128 | 16 | >128 | 128 | 64 | 1.68
ASVVKKLTKKVAGLLK-NH2 [TP(i+4) 1&4] |  | 1.00 | >128 | >128 | 32 | 8 | >128 | 32 | >128 | >128 | 8 | >128 | 64 | 16 | 2.56
ASVVKKLTKKVAKLLK-NH2 [TP(i+4) 1&2&4] | 8.90 | 1.00 | >128 | >128 | 32 | 4 | >128 | 32 | >128 | >128 | 4 | >128 | 64 | 8 | 2.98
ASVVNKLTGGVAGLLK-NH2 [TP, reference compound] | 1.00 | 1.00 | >128 | >128 | >128 | >128 | >128 | >128 | >128 | >128 | >128 | >128 | >128 | >128 | 1.00
ASVVNKLTGKVAGLLK-NH2 [TP(i+4) 4] | 2.83 | 1.00 | >128 | >128 | 64 | 16 | >128 | 64 | >128 | >128 | 16 | >128 | 128 | 64 | 1.68
ASVVNKLTKGVAKLLK-NH2 [TP(i+4) 2] | 3.56 | 1.00 | >128 | >128 | 64 | 8 | >128 | 64 | >128 | >128 | 16 | >128 | 128 | 32 | 1.89
